Measurements as given in publication PMC8110578, “Phenylethynylbenzyl-modified biguanides inhibit pancreatic cancer tumor growth” (Scientific Reports, 2021).

What was measured:
[1] = system: NB508 mouse pancreatic ductal adenocarcinoma cells; assay: In vitro growth inhibition screen at 5 µM, NB508 cells; format: cell-based; conditions: 72 h at 37 °C
Text: Figure 1 (A) Structure and crystal packing of previously studied PEB-disubstituted (A.1) and monosubstituted (A.2 and A.3) benzimidazolium salts. Compound A.1 is an efficient chloride transporter forming channels and generating holes in bacterial membranes and red blood cellular membranes. Compound A.2 penetrates phospholipid membranes but is less efficient as ion transporter as it forms more compact aggregates; its toxicity on RBC is lower than compound A.1. The replacement of the phenyl group with a methyl group in compound A.3 results in the formation of even more compact aggregates with even lower toxicity on RBC. (B) Structure of PEB-substituted biguanidium salts. For each biguanide we prepared three series of biguanidium salts with different counterions. (C) Synthesis of 4-(phenylethynyl)benzylbiguanide 1 and 4-(phenylethyl)benzylbiguanide 2; (a) Phenylacetylene, PdCl2PPh3, CuI, PPh3, Et3N, THF, 70 °C, o.n. (b) NaCN(BH3)3, EtOHNH4OAc sat./NH3, 80 °C, o.n (c) Dicyandiamide, TMSCl, THFanh., 145 °C, 1 h (d) Pd/C 10%, H2, EtOH/AcOEt, 60 °C, 2 h. (D) Synthesis of 4-(phenylethynylphenyl)biguanidium 3 and 4-(phenylethylphenyl)biguanidium 4 (a) (1) Boc2O, THF, 2 h, (2) Phenylacetylene, PdCl2PPh3, CuI, PPH3, Et3N, THF, 70°, o.n. (b) TFA, DCM, 60 °C, 2 h (c) Dicyandiamide, TMSCl, THFanh, 145 °C, 1 h (d) Pd/C 10%, H2, EtOH/AcOEt, 60 °C, 2 h. The NMR spectra of the synthesized compounds are given in Supplementary Figs. S1–S24. (E) Relative growth of NB508 mouse pancreatic ductal adenocarcinoma cells and IMR90 fibroblasts exposed to 5 µM of PEB-biguanidium salts. Cells were incubated for 72 h at 37 °C. Errors bars represent the standard error of the mean (SEM), *p < 0.05, **p < 0.01, Student’s t test. (F) Crystal structure of 1b showing its self-assembly in the solid state. Crystal data is available in Supplementary Tables S1–S8 and crystal packing in Supplementary Fig. S25. TEXT PRINTED IN THE PICTURE: (A) A.1: HC50: 0.15 mM | (A) A.2: HC50: 1 mM | (A) A.3: HC50: 150 mM
NB508 is an aggressive pro-metastatic pancreatic cancer cell line that we used previously to study the role of mitochondria in pancreatic cancer. […].

cancer cells = conditions: cited from earlier work
Panc1 cells = assay: Growth assay (crystal violet), Panc1 cells; format: cell-based; conditions: Homo sapiens, PANC-1, 72 h
[2] = Solubility in methanol and DMSO; format: physicochemical; conditions: even at high concentrations
[3] = Lucigenin assay, chloride transport in EYPC liposomes; conditions: lucigenin-containing liposomes
Text: Phospholipid vesicles can be used as models for studying membrane insertion and permeabilization. Using an anion-selective probe in synthetic phospholipid liposomes, anion transport can be monitored by fluorescence. […] This basification was further enhanced with the addition of a base pulse to the external solution at 300 s, indicating either a transport of protons to the extravesicular solution, or the transport of hydroxyls to the intravesicular solution. This was also reported for alkylbiguanidium salts and was described as an electrogenic process, i.e. the transmembrane transport of an ion without the balance of the charge through the movement of another ion, which usually results in a charge transfer. […] […]. The transport of H^+/OH^− ions across the membrane is an electrogenic mechanism that usually causes the depolarization of the electrochemical gradient across phospholipid membranes. When EYPC-LUVs liposomes containing intravesicular K^+ ions are bathing in an extravesicular solution containing Na^+ ions a small membrane potential is generated at their membranes, and the fluorescence of Safranin-O can be used as a membrane potential probe. […].
Experimental. […] The fluorescence was monitored for 350 s.

Row | Structure (SMILES) | Growth inhibition of NB508 cells [1] | Reported antiproliferative concentration in vitro (cancer cells) [mM] | IC50 (Panc1 cells) [µM] | Solubility in methanol and DMSO [2] | Chloride transport across EYPC-LUV membrane [3]
1 | CN(C)C(=N)NC(=N)N [metformin, 1,1-dimethylbiguanide, reference compound] | no effect was observed | 5 | ~5000 | – | –
2 | N=C(N)NC(=N)NCc1ccc(C#Cc2ccccc2)cc1 [1b, 4-(phenylethynyl)benzylbiguanide] | most important antiproliferative activities | – | 15 | good methanol and DMSO solubility even at high concentrations | did not transport chloride
